Experimental data as given in patent US9790211B2, “5-amino-quinoline-8-carboxamide derivatives as 5-HT4 receptor agonists” (SUVEN LIFE SCIENCES LIMITED, priority 2013, dated 2017).

Tests used:
[1] = test system: Male Wistar rats; experiment: Object recognition task model; format: in vivo; settings: dose mg/kg: Ex 1 0.1, Ex 2 0.03, Ex 4 0.03, Ex 13 1, Ex 23 0.01, Ex 37 10, Ex 43 0.3; for Exploration time mean ± S.E.M, Familiar object / Exploration time mean ± S.E.M, Novel object: choice trial T2, p.o.; for Inference: p.o.
Experimental: The cognition enhancing properties of compounds of this invention were estimated by using this model.
Male Wistar rats (230-280 grams) were used as experimental animals. Four animals were housed in each cage. Animals were kept on 20% food deprivation before one day and given water ad libitum throughout the experiment and maintained on a 12 hours light/dark cycle. Also the rats were habituated to individual arenas for 1 hour in the absence of any objects.
One group of 12 rats received vehicle (1 mL/Kg) orally and another set of animals received compound of the formula (I) either orally or i.p., before one hour of the familiar (T1) and choice trial (T2).
The experiment was carried out in a 50×50×50 cm open field made up of acrylic. In the familiarization phase, (T1), the rats were placed individually in the open field for 3 minutes, in which two identical objects (plastic bottles, 12.5 cm height×5.5 cm diameter) covered in yellow masking tape alone (a1 and a2) were positioned in two adjacent corners, 10 cms from the walls. After 24 hours of the (T1) trial for long-term memory test, the same rats were placed in the same arena as they were placed in T1 trial. Choice phase (T2) rats were allowed to explore the open field for 3 minutes in presence of one familiar object (a3) and one novel object (b) (Amber color glass bottle, 12 cm high and 5 cm in diameter). Familiar objects presented similar textures, colors and sizes. During the T1 and T2 trial, explorations of each object (defined as sniffing, licking, chewing or having moving vibrissae whilst directing the nose towards the object at a distance of less than 1 cm) were recorded separately by stopwatch. Sitting on an object was not regarded as exploratory activity, however, it was rarely observed.
T1 is the total time spent exploring the familiar objects (a1+a2).
T2 is the total time spent exploring the familiar object and novel object (a3+b).
The object recognition test was performed as described by Behaviour Brain Research, (1988), 31, 47-59.

[2] = Rodent brain penetration study; format: in vivo, Male Wistar rats; settings: male, Wistar, rat, brain, po, 3 mg/kg, 3 mg/kg oral (gavage), read-out: Single dose Brain Penetration (Cb/Cp)
Experimental: Male Wistar rats (225±25 grams) were used as experimental animals. Three animals were housed in each cage. Animals were given water and food ad libitum throughout the experiment and maintained on a 12 hours light/dark cycle. Brain penetration was determined in discrete manner in rats. One day prior to dosing day, male wistar rats (225-250 grams) were acclimatized. After acclimatization the rats were grouped according to their weight. In each group, 3 animals were kept in individual cage and allowed free access to food and water. At each time point (0.50, 1, and 2 hours) n=3 animals were used. The compounds of formula (I) were suitably preformulated and administered orally at (free base equivalent) 3 mg/kg. Blood samples were removed via, cardiac puncture by using isoflurane anesthesia. The animals were sacrificed to collect brain tissue. Plasma was separated and brain samples were homogenized and stored frozen at −20° C. until analysis. The concentrations of the compounds of formula (I) in plasma and brain were determined using LC-MS/MS method. The compounds of formula (I) were quantified in plasma and brain homogenate by qualified LC-MS/MS method using suitable extraction technique. The compounds of formula (I) were quantified in the calibration range of 1-500 ng/mL in plasma and brain homogenate. Study samples were analyzed using calibration samples in the batch and quality control samples spread across the batch. Extent of brain-plasma ratio was calculated (Cb/Cp).

[3] = molecular target: T1, recombinant human 5-HT4 receptor (Homo sapiens, UniProt Q13639); experiment: Determination of EC50 values for 5-HT4 receptor (CHO cells, pCRE-Luc reporter); format: cell-based; settings: for Emax: CHO; for EC50: CHO cells, human 5-HT4 receptor, luciferase reporter, 4 hours incubation
T1 construct: expressed in transfected cells
Experimental: Determination of EC50 Values for 5-HT4 Receptor
A stable CHO cell line expressing recombinant human 5-HT4 receptor and pCRE-Luc reporter system was used for cell-based assay. The assay offers a non-radioactive based approach to determine binding of a compound to GPCRs. In this specific assay, the level of intracellular cyclic AMP, which is modulated by activation, or inhibition of the receptor is measured. The recombinant cells harbor luciferase reporter gene under the control of cAMP response element.
The above cells were grown in 96 well clear bottom white plates in Hams F12 medium containing 10% fetal bovine serum (FBS). Prior to the addition of compounds or standard agonist, cells were serum starved overnight. Increasing concentrations of test compounds were added in OptiMEM medium to the cells. The incubation was continued at 37° C. in CO2 incubator for 4 hours. Medium was removed and cells were washed with phosphate buffered saline. The cells were lysed and luciferase activity was measured in a Luminometer. Luminescence units were plotted against the compound concentrations using Graphpad software.

[4] = Rodent pharmacokinetic study; format: in vivo, Male wistar rats; settings: plasma, Wistar/Male rat; for bioavailability: 3 mg/kg oral vs 1 mg/kg intravenous
Experimental: Male wistar rats (225±25 grams) were used as experimental animals. Three to five animals were housed in each cage. Two days prior to dosing day, male wistar rats (225-250 grams) were anesthetized with isoflurane for surgical placement of jugular vein catheter. Animals were fasted over night before oral dosing (p.o) and food pellets were allowed 2 hours post dosing, whereas during intravenous dosing food and water were provided as ad libitum. Three rats were dosed with compounds of formula (I) (3 mg/kg) orally and intravenously (1 mg/kg).
At each time point blood was collected through jugular vein and immediately replenish with an equivalent volume of normal saline from freely moving rats. Collected blood was transferred into a labeled eppendr off containing 10 μL of heparin as anticoagulant. Typically blood samples were collected as following time points: Pre dose, 0.08 (only i.v.), 0.25, 0.5, 1, 2, 4, 6, 8, and 24 hours post dose (n=3). Blood was centrifuged at 4000 rpm for 10 minutes. Plasma was prepared and stored frozen at −20° C. until analysis. The concentrations of the compounds of formula (I) were quantified in plasma by qualified LC-MS/MS method using suitable extraction technique. The compounds of formula (I) were quantified in the calibration range around 2-2000 ng/mL in plasma. Study samples were analyzed using calibration samples in the batch and quality control samples spread across the batch.
Pharmacokinetic parameters Cmax, Tmax, AUC1, T1/2 and Bioavailability were calculated by non-compartmental model using standard non-coinpartmental model by using WinNonLin 5.0.1 or Phoenix WinNonlin 6.2 version Software package.

[5] = test system: sAPPα; experiment: Estimation of mice brain cortical sAPPα levels (ELISA); format: in vivo; settings: s.c., 60 minutes post treatment
Experimental: The control group of mice received sterile water for injection subcutaneously (s.c.). […] Mice were sacrificed 60 minutes after the drug injection by cervical dislocation, the brains were quickly isolated and the cortex was dissected at −20° C. The cortex was immediately kept on a dry ice and weighed before being stored at −80° C. until Enzyme-linked immunosorbent assay (ELISA) was performed. • 1. Brain tissues were thawed and Tris Buffer Saline containing protease inhibitors (TBS, 4 times by volume) added (0.8 mL/200 mg tissues). • 2. Brain tissue samples were homogenized using glass-Teflon homogenizer at 10 strokes. The resulting homogenates were centrifuged at 15,000 rpm at 4° C. for 60 minutes. • 3. The supernatant was discarded and to the precipitate, 4 times volume (0.8 mL/200 mg tissues) of TBS was added. Again homogenized followed by centrifugation at 15,000 rpm 4° C. for 30 minutes. • 4. From the above centrifuged mixture the supernatant was discarded and 10 times volume of 6M Guanidine-HCl in 50 mM Tris buffer pH: 7.6 (500 μL/50 mg tissues) was added. The resulting solution was sonicated for 5 seconds, 4 times. • 5. Resulting mixture was incubated at the RT for 30 minutes, followed by centrifugation at 15,000 rpm, 4° C. for 30 minutes. From this 5 μL of supernatant solution was taken and diluted with 155 μL of EIA buffer (dilution factor 32). Measurement of sAPPα by ELISA Kit: To investigate the role of an acute treatment of test compound on sAPPα levels, we measured the expression of this protein in homogenates from the cortex of treated and untreated mice by ELISA assay. The entire procedure was followed as described in the ELISA kit manual (Mouse/Rat sAPPα ELISA, Catalog Number: JP27415, […], Hamburg, Germany). Statistical analyses were performed using the Graph Pad Prism (Version 4). Data are Mean±SD of sAPPa levels expressed as percentage of control values (mice which received water for injection). Values were compared between the different groups by using unpaired t test. The significance level was set at *p<0.05; […]; ***<0.001.

[6] = test system: Scopolamine Induced amnesia; experiment: Radial arm maze; format: in vivo; settings: p.o., rats
Text: The cognition enhancing properties of compounds of formula (I) of this invention were estimated by using this model.
Radial arm maze consists of a central hub of 45 cm diameter. Each arm was of dimension 42.5×15×24 cm. The maze was elevated to a height of 1 m above the ground. The animals were placed on a restricted diet until they reached approximately 85% of their free feeding weight. During this diet restriction period animals were habituated to the novel feed (pellets). Once the rats reached approximately 85% of their free feeding weight rats were habituated to the maze on the 1st and 2nd day. […] Animals were randomized on day 2. On the subsequent days the treatment was given as per the allotment: Each animal was introduced into the maze individually for a period of 10 minutes. The arms were baited only once and the animal had to learn the rule that repeated arm entries would not be rewarded. The trial ended once the rat had visited 16 arms or 10 minutes were over or all the pellets were eaten. The arm entries were recorded using the software. Once the trial was over the rat was removed and the maze was cleaned using soap water.

T1 sequence (Q13639 whole entry): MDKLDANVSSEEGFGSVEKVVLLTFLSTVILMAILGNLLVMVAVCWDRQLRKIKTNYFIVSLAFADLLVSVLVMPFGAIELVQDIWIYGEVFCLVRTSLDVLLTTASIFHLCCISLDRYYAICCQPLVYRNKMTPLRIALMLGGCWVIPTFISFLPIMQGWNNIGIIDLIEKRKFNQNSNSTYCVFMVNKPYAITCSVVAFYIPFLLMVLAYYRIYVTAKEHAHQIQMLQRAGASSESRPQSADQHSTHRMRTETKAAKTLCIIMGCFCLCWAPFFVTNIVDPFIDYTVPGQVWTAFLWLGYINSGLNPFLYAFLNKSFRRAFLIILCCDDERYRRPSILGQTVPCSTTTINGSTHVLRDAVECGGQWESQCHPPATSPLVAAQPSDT

Compound	Exploration time mean ± S.E.M, Familiar object [1]	Exploration time mean ± S.E.M, Novel object [1]	Inference [1]	Kp [2]	Emax [3]	EC50 [3]	AUC(0-t) ([4]; 1 mg/kg intravenous (bolus))	Cmax ([4]; 1 mg/kg intravenous (bolus))	Tmax ([4]; 1 mg/kg intravenous (bolus))	half-life ([4]; 1 mg/kg intravenous (bolus))	AUC(0-t) ([4]; 3 mg/kg oral (gavage))	Cmax ([4]; 3 mg/kg oral (gavage))	Tmax ([4]; 3 mg/kg oral (gavage))	half-life ([4]; 3 mg/kg oral (gavage))	bioavailability [4]	increase in the mice brain cortical sAPPα levels ([5]; 0.3 mg/kg)	increase in the mice brain cortical sAPPα levels ([5]; 1.0 mg/kg)	Reversal of Scopolamine Induced amnesia - Effective dose range [6]
CC(C)(O)CN1CCC(F)(CNC(=O)c2cc(F)c(N)c3cccnc23)CC1.O=C(O)C(O)C(O)C(=O)O [Example 43, 5-Amino-6-fluoro-N-{[4-fluoro-1-(2-hydroxy-2-methylpropyl)-4-piperidinyl]methyl} quinoline-8-carboxamide L(+)-tartarate]	9.30 ± 0.93 s	16.09 ± 2.63 s	Active	0.93 ± 0.26	43%	2.9 nM	362 ± 83 ng·h/mL	306 ± 47 ng/mL	4.8 min	114 ± 54 min	373 ± 39 ng·h/mL	231 ± 40 ng/mL	19.8 ± 8.4 min	204 ± 132 min	34 ± 4%			
Nc1c(Cl)cc(C(=O)NCC2C3CN(CC4CCOCC4)CC23)c2ncccc12.O=C(O)C(O)C(O)C(=O)O (stereo not drawn) [Example 2, 5-Amino-6-chloro-N-{[3-(tetrahydro-2H-pyran-4-ylmethyl)-3-azabicyclo[3.1.0]hex-6-yl]methyl}quinoline-8-carboxamide L(+)-tartarate]	7.46 ± 1.30 s	15.75 ± 1.65 s	Active	1.31 ± 0.1	59%	0.5 nM	284 ± 10 ng·h/mL	252 ± 30 ng/mL	4.8 min	96 ± 6 min	531 ± 51 ng·h/mL	140 ± 24 ng/mL	25.2 ± 8.4 min	72 ± 6 min	62 ± 6%			
CC(C)(O)CN1CCC(F)(CNC(=O)c2cc(Cl)c(N)c3cccnc23)CC1.O=C(O)C(O)C(O)C(=O)O [Example 37, 5-Amino-6-chloro-N-{[4-fluoro-1-(2-hydroxy-2-methylpropyl)-4-piperidinyl]methyl} quinoline-8-carboxamide L(+)-tartarate]	8.45 ± 1.65 s	17.81 ± 1.42 s	Active	0.61 ± 0.07	62%	2.2 nM	274 ± 25 ng·h/mL	324 ± 52 ng/mL	4.8 min	114 ± 6 min	200 ± 49 ng·h/mL	137 ± 37 ng/mL	15 min	78 ± 18 min	24 ± 6%			
Nc1c(Cl)cc(C(=O)NCC2(F)CCN(CC3(O)CCOCC3)CC2)c2ncccc12.O=C(O)C(O)C(O)C(=O)O [Example 27, 5-Amino-6-chloro-N-{[4-fluoro-1-(4-hydroxytetrahydro-2H-pyran-4-ylmethyl)-4-piperidinyl]methyl}quinoline-8-carboxamide L(+)-tartarate]				0.4 ± 0.02	63%	0.6 nM	401 ± 15 ng·h/mL	448 ± 41 ng/mL	4.8 min	102 ± 24 min	236 ± 72 ng·h/mL	173 ± 48 ng/mL	15 min		20 ± 6%			
Nc1c(Cl)cc(C(=O)NCC2CCN(CC3(O)CCOCC3)CC2)c2ncccc12.O=C(O)C(O)C(O)C(=O)O [Example 23, 5-Amino-6-chloro-N-{[1-(4-hydroxytetrahydro-2H-pyran-4-ylmethyl)-4-piperidinyl]methyl}quinoline-8-carboxamide L(+)-tartarate]	8.80 ± 1.46 s	16.80 ± 2.45 s	Active		67%											42%	33%	0.01-0.1 mg/kg, p.o.
